# How the values were obtained:
# Experiment in all cases: weeding effect in post-emergence stage
# Format in all cases: in vivo
# Alopecurus japonicus = tested on: Alopecurus japonicus
# Procedure, shortened: (§1)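 Read-out is fresh weight growth control rate, binned into levels 0-5 (Level 5 above 85%, Level 0 below 5%), recorded 3 weeks after spraying and averaged over three repeats. Plants were treated at the 2-3 leaf stage with 7.5-500 g a.i./ha plus methyl oleate synergist.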
# Beckmannia syzigachne = tested on: Beckmannia syzigachne
# Procedure, shortened: as §1
# Conyza japonica = tested on: Conyza japonica
# Procedure, shortened: as §1
# Rorippa indica = tested on: Rorippa indica
# Procedure, shortened: as §1
SMILES,"weeding effect in post-emergence stage, Alopecurus japonicus (activity level) (Alopecurus japonicus; dose 125 g a.i./ha)","weeding effect in post-emergence stage, Beckmannia syzigachne (activity level) (Beckmannia syzigachne; dose 125 g a.i./ha)","weeding effect in post-emergence stage, Conyza japonica (activity level) (Conyza japonica; dose 125 g a.i./ha)","weeding effect in post-emergence stage, Rorippa indica (activity level) (Rorippa indica; dose 125 g a.i./ha)","weeding effect in post-emergence stage, Alopecurus japonicus (activity level) (Alopecurus japonicus; dose 15 g a.i./ha)","weeding effect in post-emergence stage, Beckmannia syzigachne (activity level) (Beckmannia syzigachne; dose 15 g a.i./ha)","weeding effect in post-emergence stage, Conyza japonica (activity level) (Conyza japonica; dose 15 g a.i./ha)","weeding effect in post-emergence stage, Rorippa indica (activity level) (Rorippa indica; dose 15 g a.i./ha)","weeding effect in post-emergence stage, Alopecurus japonicus (activity level) (Alopecurus japonicus; dose 7.5 g a.i./ha)","weeding effect in post-emergence stage, Beckmannia syzigachne (activity level) (Beckmannia syzigachne; dose 7.5 g a.i./ha)","weeding effect in post-emergence stage, Conyza japonica (activity level) (Conyza japonica; dose 7.5 g a.i./ha)","weeding effect in post-emergence stage, Rorippa indica (activity level) (Rorippa indica; dose 7.5 g a.i./ha)"
CCOC(=O)C1(C(F)(F)F)CC(c2cc(-n3c(=O)n(C)c(=S)n(C)c3=O)c(F)cc2Cl)=NO1 (racemic) [Compound 33],5 (Level 5: growth control rate is above 85%),5 (Level 5: growth control rate is above 85%),5 (Level 5: growth control rate is above 85%),5 (Level 5: growth control rate is above 85%),–,–,–,–,–,–,–,–
Cn1c(=S)n(C)c(=O)n(-c2cc(C3=NOC(C)(C(=O)OCCC(F)(F)F)C3)c(Cl)cc2F)c1=O (centres unmarked) [Compound 1-90],–,–,–,–,5 (Level 5: growth control rate is above 85%),5 (Level 5: growth control rate is above 85%),5 (Level 5: growth control rate is above 85%),5 (Level 5: growth control rate is above 85%),–,–,–,–
C#CC(C)OC(=O)C1(C)CC(c2cc(-n3c(=O)n(C)c(=S)n(C)c3=O)c(F)cc2Cl)=NO1 (centres unmarked) [Compound 1-82],–,–,–,–,5 (Level 5: growth control rate is above 85%),5 (Level 5: growth control rate is above 85%),5 (Level 5: growth control rate is above 85%),5 (Level 5: growth control rate is above 85%),–,–,–,–
CCOC(=O)C1(C2CCC2)CC(c2cc(-n3c(=O)cc(C(F)(F)F)n(C)c3=O)c(F)cc2Cl)=NO1 (racemic) [Compound 126],5 (Level 5: growth control rate is above 85%),5 (Level 5: growth control rate is above 85%),5 (Level 5: growth control rate is above 85%),5 (Level 5: growth control rate is above 85%),–,–,–,–,–,–,–,–
CCOC(=O)[C@]1(C)CC(c2cc(-n3c(=O)n(C)c(=S)n(C)c3=O)c(F)cc2Cl)=NO1 [Compound 1-62],–,–,–,–,5 (Level 5: growth control rate is above 85%),5 (Level 5: growth control rate is above 85%),5 (Level 5: growth control rate is above 85%),5 (Level 5: growth control rate is above 85%),–,–,–,–
CCOC(=O)C1(C2CC2)CC(c2cc(-n3c(=O)n(C)c(=S)n(C)c3=O)c(F)cc2Cl)=NO1 (racemic) [Compound 17],5 (Level 5: growth control rate is above 85%),5 (Level 5: growth control rate is above 85%),5 (Level 5: growth control rate is above 85%),5 (Level 5: growth control rate is above 85%),5 (Level 5: growth control rate is above 85%),5 (Level 5: growth control rate is above 85%),5 (Level 5: growth control rate is above 85%),5 (Level 5: growth control rate is above 85%),–,–,–,–
CCOC(=O)[C@]1(CC)CC(c2cc(-n3c(=O)n(C)c(=S)n(C)c3=O)c(F)cc2Cl)=NO1 [3(S)],5 (Level 5: growth control rate is above 85%),5 (Level 5: growth control rate is above 85%),5 (Level 5: growth control rate is above 85%),5 (Level 5: growth control rate is above 85%),–,–,–,–,5 (Level 5: growth control rate is above 85%),4 (Level 4: growth control rate is greater than or equal to 60% and less than 85%),4 (Level 4: growth control rate is greater than or equal to 60% and less than 85%),5 (Level 5: growth control rate is above 85%)
CCOC(=O)C1(C)CC(c2cc(-n3c(=O)n(C4CC4)c(=S)n(C4CC4)c3=O)c(F)cc2Cl)=NO1 (centres unmarked) [Compound 1-66],–,–,–,–,5 (Level 5: growth control rate is above 85%),5 (Level 5: growth control rate is above 85%),5 (Level 5: growth control rate is above 85%),5 (Level 5: growth control rate is above 85%),–,–,–,–
CCOC(=O)[C@@]1(C=O)CC(c2cc(-n3c(=O)cc(C(F)(F)F)n(C)c3=O)c(F)cc2Cl)=NO1 [152(S)],–,–,–,–,5 (Level 5: growth control rate is above 85%),5 (Level 5: growth control rate is above 85%),5 (Level 5: growth control rate is above 85%),5 (Level 5: growth control rate is above 85%),–,–,–,–
CCOC(=O)C1ON=C(c2cc(-n3c(=O)n(C)c(=S)n(C)c3=O)c(F)cc2Cl)C1C(=O)OCC (centres unmarked) [Compound 1-100],–,–,–,–,5 (Level 5: growth control rate is above 85%),5 (Level 5: growth control rate is above 85%),5 (Level 5: growth control rate is above 85%),5 (Level 5: growth control rate is above 85%),–,–,–,–
CCOC(=O)C1(COC(=O)C(=O)O)CC(c2cc(-n3c(=O)cc(C(F)(F)F)n(C)c3=O)c(F)cc2Cl)=NO1 (racemic) [Compound 220],5 (Level 5: growth control rate is above 85%),5 (Level 5: growth control rate is above 85%),5 (Level 5: growth control rate is above 85%),5 (Level 5: growth control rate is above 85%),–,–,–,–,–,–,–,–
CCOC(=O)CCC1(C)CC(c2cc(-n3c(=O)cc(C(F)(F)F)n(C)c3=O)c(F)cc2Cl)=NO1 (centres unmarked) [Compound 1-37],–,–,–,–,5 (Level 5: growth control rate is above 85%),5 (Level 5: growth control rate is above 85%),5 (Level 5: growth control rate is above 85%),5 (Level 5: growth control rate is above 85%),–,–,–,–
CCCC[C@@]1(C(=O)OCC)CC(c2cc(-n3c(=O)n(C)c(=S)n(C)c3=S)c(F)cc2Cl)=NO1 [205(S)],–,–,–,–,5 (Level 5: growth control rate is above 85%),5 (Level 5: growth control rate is above 85%),5 (Level 5: growth control rate is above 85%),5 (Level 5: growth control rate is above 85%),–,–,–,–
COC(=O)[C@]1(Cc2ccccc2)CC(c2cc(-n3c(=O)n(C)c(=S)n(C)c3=O)c(F)cc2Cl)=NO1 [59(S)],–,–,–,–,5 (Level 5: growth control rate is above 85%),5 (Level 5: growth control rate is above 85%),5 (Level 5: growth control rate is above 85%),5 (Level 5: growth control rate is above 85%),–,–,–,–
"CCOC(=O)C1(C)CC(c2cc(-n3c(=O)n(C)c(=S)n(C)c3=O)c(F)cc2Cl)=NO1 (centres unmarked) [drawing 746, reference compound]",–,–,–,–,2 (Level 2: growth control rate is greater than or equal to 20% and less than 40%),1 (Level 1: growth control rate is greater than or equal to 5% and less than 20%),1 (Level 1: growth control rate is greater than or equal to 5% and less than 20%),1 (Level 1: growth control rate is greater than or equal to 5% and less than 20%),–,–,–,–
CCOC(=O)[C@@]1(C2CC2)CC(c2cc(-n3c(=O)n(C)c(=S)n(C)c3=O)c(F)cc2Cl)=NO1 [17(S)],5 (Level 5: growth control rate is above 85%),5 (Level 5: growth control rate is above 85%),5 (Level 5: growth control rate is above 85%),5 (Level 5: growth control rate is above 85%),–,–,–,–,–,–,–,–
Cn1c(=S)n(C)c(=O)n(-c2cc(C3=NOC(C)(C(=O)OCC(C)(F)F)C3)c(Cl)cc2F)c1=O (centres unmarked) [Compound 1-89],–,–,–,–,5 (Level 5: growth control rate is above 85%),5 (Level 5: growth control rate is above 85%),5 (Level 5: growth control rate is above 85%),5 (Level 5: growth control rate is above 85%),–,–,–,–
CCOC(=O)C1(C(F)F)CC(c2cc(-n3c(=O)cc(C(F)(F)F)n(C)c3=O)c(F)cc2Cl)=NO1 (racemic) [Compound 134],5 (Level 5: growth control rate is above 85%),5 (Level 5: growth control rate is above 85%),5 (Level 5: growth control rate is above 85%),5 (Level 5: growth control rate is above 85%),–,–,–,–,–,–,–,–

# Source: US12509452B2, “Substituted-isoxazoline-containing aromatic compound, preparation method therefor, herbicidal composition and use thereof” (QINGDAO KINGAGROOT CHEMICAL COMPOUND CO., LTD., priority 2019, dated 2025)
